According to US20220135622A1, “ANTIBACTERIAL PEPTIDES AND METHODS OF USE” (priority 2019, published 2022):
Values after ≈ are worked out from the molar mass of the structure shown. Read-outs that look alike come from different tables or passages of the source. Square brackets hold non-standard residues; d marks the D form. Peptide text beside a SMILES is read from it. Bip = N[C@@H](Cc1ccc(-c2ccccc2)cc1)C(=O)O; hhPhe = N[C@@H](CCCc1ccccc1)C(=O)O; NMeF = CN[C@@H](Cc1ccccc1)C(=O)O; Ahp(2) = CCCCC[C@H](N)C(=O)O; NMeM = CN[C@@H](CCSC)C(=O)O; Pip = O=C(O)[C@@H]1CCCCN1; NMeA = CN[C@@H](C)C(=O)O; Dap = NC[C@H](N)C(=O)O; Aib = CC(C)(N)C(=O)O

System: E. coli BW25113
Assay type: cell-based, Escherichia coli
Method: Bacterial growth conditions. LB or Mueller Hinton II cation-adjusted broth (MHB II, BBL 212322) was prepared according to manufacturer's instructions and supplemented with arabinose at 0.02% for overnight growth or at indicated concentrations in the description of the figures. Bacterial cultures were grown at 37° C. When appropriate, media was supplemented with kanamycin (50 μg/mL), carbenicillin (50 μg/mL), chloramphenicol (12.5 or 25 μg/mL), hygromycin (200 μg/mL), and/or gentamicin (10 μg/mL).
Peptide sensitivity and MIC assays. Lyophilized peptides (Smartox Biotechnology, CPC Scientific. ABclonal) were solubilized to 10 mM in Tris buffer, pH 8, prior to making a 2-fold dilution series in MHBII cation adjusted broth with highest final assay concentration of 400-800 μM. Bacteria were grown to log phase and added to final OD600˜0.001. The final EDTA concentration was 0.5 mM for E. coli strains and 0.125 mM for USA300. The final volume of 10 μL/well in a 384 well black, clear bottom plate (Corning) was spun <1 min at <250×g and then incubated at 37° C. After 4 h, an equal volume (10 μL) of BacTiter-Glo™ (Promega) was added to each well and luminescence was read after 5 min on an EnVision plate reader (PerkinElmer). To measure the minimal inhibitory concentrations (MICs), bacteria from fresh overnight plates or log phase cultures were diluted with or without EDTA and peptides as described above to final OD600˜0.0002. Plates were incubated at 37° C. for 20 h before measuring OD600 with an EnVision plate reader.

Compound: CSCC[C@@H](C(=O)N[C@@H](CN)C(=O)N[C@@H](Cc1ccccc1)C(=O)N[C@@H](CCCNC(=N)N)C(=O)N[C@@H](CCCNC(=N)N)C(=O)N[C@@H](Cc1ccccc1)C(=O)N[C@@H](CC(C)C)C(=O)N[C@@H](CCC(=O)O)C(=O)N[C@@H](CCCCN)C(=O)N[C@@H](Cc1c[nH]c2ccccc12)C(=O)NCC(=O)N[C@@H](CC(C)C)C(=O)N[C@@H](CC(C)C)C(=O)N[C@@H](CCCNC(=N)N)C(N)=O)N(C)C(=O)[C@@H]1CCCN1C(=O)[C@H](Cc1ccc(O)cc1)NC(C)=O [compound 95] (Ac-YP[NMeM][Dap]FRRFLEKWGLLR-NH2)
- MIC E. coli BW25113 (Table 8): 50.0 µM (≈ 108 µg/mL)

Compound: CCCCC[C@H](NC(=O)[C@H](CCCCN)NC(=O)[C@H](C)NC(=O)[C@H](CC(C)C)NC(=O)[C@H](Cc1c[nH]c2ccccc12)NC(=O)[C@H](CCCNC(=N)N)NC(=O)[C@H](CCCNC(=N)N)NC(=O)[C@H](C)NC(=O)[C@@H](NC(=O)[C@H](CCSC)NC(=O)[C@@H]1CCCN1C(=O)[C@H](CCCNC(=N)N)NC(C)=O)[C@@H](C)O)C(=O)NCC(=O)N[C@@H](CC(C)C)C(N)=O [compound 224] (Ac-RPMTARRWLAK[Ahp(2)]GL-NH2)
- MIC E. coli BW25113 (Table 8): 100.0 µM (≈ 172 µg/mL)

Compound: Ac-YPFTFRRFLEKWGLLR-NH2 [compound 79]
- MIC E. coli BW25113 (Table 8): 200.0 µM

Compound: Ac-YPMRFRRFLEKWGLLR-NH2 [compound 108]
- MIC E. coli BW25113 (Table 8): <12.5 µM

Compound: Ac-RPMTWRRWLEKHGL-NH2 [compound 204]
- MIC E. coli BW25113 (Table 8): 200.0 µM

Compound: CSCC[C@@H](C(=O)N[C@@H](CN)C(=O)N(C)[C@@H](Cc1ccccc1)C(=O)N[C@@H](CCCNC(=N)N)C(=O)N[C@@H](CCCNC(=N)N)C(=O)N[C@@H](Cc1ccccc1)C(=O)N[C@@H](CC(C)C)C(=O)N[C@@H](CCC(=O)O)C(=O)N[C@@H](CCCCN)C(=O)N[C@@H](Cc1c[nH]c2ccccc12)C(=O)NCC(=O)N[C@@H](CC(C)C)C(=O)N[C@@H](CC(C)C)C(=O)N[C@@H](CCCNC(=N)N)C(N)=O)N(C)C(=O)[C@@H]1CCCN1C(=O)[C@H](Cc1ccc(O)cc1)NC(C)=O [compound 100] (Ac-YP[NMeM][Dap][NMeF]RRFLEKWGLLR-NH2)
- MIC E. coli BW25113 (Table 8): 25.0 µM (≈ 54.2 µg/mL)

Compound: Ac-RPMTWRRWLEKYGL-NH2 [compound 205]
- MIC E. coli BW25113 (BW25113): 200.0 µM

Compound: CSCC[C@@H](C(=O)N[C@@H](CCCNC(=N)N)C(=O)N[C@@H](CCCNC(=N)N)C(=O)N[C@@H](Cc1ccccc1)C(=O)N[C@@H](CC(C)C)C(=O)N[C@@H](CCC(=O)O)C(=O)N[C@@H](CCCCN)C(=O)N[C@@H](Cc1c[nH]c2ccccc12)C(=O)NCC(=O)N[C@@H](CC(C)C)C(=O)N[C@@H](CC(C)C)C(=O)N[C@@H](CCCNC(=N)N)C(N)=O)N(C)C(=O)[C@H](CN)NC(=O)[C@H](CCSC)N(C)C(=O)[C@@H]1CCCN1C(=O)[C@H](Cc1ccc(O)cc1)NC(C)=O [compound 98] (Ac-YP[NMeM][Dap][NMeM]RRFLEKWGLLR-NH2)
- MIC E. coli BW25113 (Table 8): 25.0 µM (≈ 53.8 µg/mL)

Compound: CSCC[C@H](NC(=O)[C@@H]1CCCN1C(=O)[C@H](Cc1ccc(O)cc1)NC(C)=O)C(=O)N[C@@H](Cc1ccccc1)C(=O)N[C@@H](CN)C(=O)N[C@@H](CCCNC(=N)N)C(=O)N[C@@H](CCCNC(=N)N)C(=O)N[C@@H](Cc1ccccc1)C(=O)N[C@@H](CC(C)C)C(=O)N[C@@H](CCC(=O)O)C(=O)N[C@@H](CCCCN)C(=O)N[C@@H](Cc1c[nH]c2ccccc12)C(=O)NCC(=O)N[C@@H](CC(C)C)C(=O)N[C@@H](CC(C)C)C(=O)N[C@@H](CCCNC(=N)N)C(N)=O [compound 104] (Ac-YPMF[Dap]RRFLEKWGLLR-NH2)
- MIC E. coli BW25113 (Table 8): 200 µM (≈ 428 µg/mL)

Compound: CSCC[C@H](NC(=O)[C@H](CN)NC(=O)[C@H](CCSC)NC(=O)[C@@H]1CCCN1C(=O)[C@H](CCCNC(=N)N)NC(C)=O)C(=O)N[C@@H](CCCNC(=N)N)C(=O)N[C@@H](CCCNC(=N)N)C(=O)N[C@@H](Cc1ccc(-c2ccccc2)cc1)C(=O)N[C@@H](CC(C)C)C(=O)N[C@@H](C)C(=O)N[C@@H](CCCCN)C(=O)N[C@@H](Cc1c[nH]c2ccccc12)C(=O)NCC(=O)N[C@@H](CC(C)C)C(N)=O [compound 217] (Ac-RPM[Dap]MRR[Bip]LAKWGL-NH2)
- MIC E. coli BW25113 (BW25113): 12.5 µM (≈ 23.3 µg/mL)

Compound: CSCC[C@@H](C(=O)N[C@@H](CN)C(=O)N(C)[C@@H](C)C(=O)N[C@@H](CCCNC(=N)N)C(=O)N[C@@H](CCCNC(=N)N)C(=O)N[C@@H](Cc1ccccc1)C(=O)N[C@@H](CC(C)C)C(=O)N[C@@H](CCC(=O)O)C(=O)N[C@@H](CCCCN)C(=O)N[C@@H](Cc1c[nH]c2ccccc12)C(=O)NCC(=O)N[C@@H](CC(C)C)C(=O)N[C@@H](CC(C)C)C(=O)N[C@@H](CCCNC(=N)N)C(N)=O)N(C)C(=O)[C@@H]1CCCN1C(=O)[C@H](Cc1ccc(O)cc1)NC(C)=O [compound 97] (Ac-YP[NMeM][Dap][NMeA]RRFLEKWGLLR-NH2)
- MIC E. coli BW25113 (Table 8): 200.0 µM (≈ 418 µg/mL)

Compound: Ac-YPMKFRRFLEKWGLLR-NH2 [compound 107]
- MIC E. coli BW25113 (Table 8): 12.5 µM

Compound: CSCC[C@H](NC(=O)[C@@H]1CCCN1C(=O)[C@H](CCCNC(=N)N)NC(C)=O)C(=O)N[C@H](C(=O)NC(C)(C)C(=O)N[C@@H](CCCNC(=N)N)C(=O)N[C@@H](CCCNC(=N)N)C(=O)N[C@@H](Cc1c[nH]c2ccccc12)C(=O)N[C@@H](CC(C)C)C(=O)N[C@@H](C)C(=O)N[C@@H](CCCCN)C(=O)N[C@@H](CCCNC(=N)N)C(=O)NCC(=O)N[C@@H](CC(C)C)C(N)=O)[C@@H](C)O [compound 220] (Ac-RPMT[Aib]RRWLAKRGL-NH2)
- MIC E. coli BW25113 (BW25113): 100.0 µM (≈ 177 µg/mL)

Compound: CSCC[C@H](NC(=O)[C@H](CN)NC(=O)[C@H](CCSC)NC(=O)[C@@H]1CCCN1C(=O)[C@H](CCCNC(=N)N)NC(C)=O)C(=O)N[C@@H](CCCNC(=N)N)C(=O)N[C@@H](CCCNC(=N)N)C(=O)N[C@@H](Cc1ccc(-c2ccccc2)cc1)C(=O)N[C@@H](CC(C)C)C(=O)N[C@@H](C)C(=O)N[C@@H](CCCCN)C(=O)N[C@@H](CCCNC(=N)N)C(=O)NCC(=O)N[C@@H](CC(C)C)C(N)=O [compound 219] (Ac-RPM[Dap]MRR[Bip]LAKRGL-NH2)
- MIC E. coli BW25113 (BW25113): 25.0 µM (≈ 45.9 µg/mL)

Compound: CSCC[C@H](NC(=O)[C@@H]1CCCCN1C(=O)[C@H](CCCNC(=N)N)NC(C)=O)C(=O)N[C@H](C(=O)N[C@@H](C)C(=O)N[C@@H](CCCNC(=N)N)C(=O)N[C@@H](CCCNC(=N)N)C(=O)N[C@@H](Cc1c[nH]c2ccccc12)C(=O)N[C@@H](CC(C)C)C(=O)N[C@@H](C)C(=O)N[C@@H](CCCCN)C(=O)N[C@@H](CCCNC(=N)N)C(=O)NCC(=O)N[C@@H](CC(C)C)C(N)=O)[C@@H](C)O [compound 221] (Ac-R[Pip]MTARRWLAKRGL-NH2)
- MIC E. coli BW25113 (BW25113): 200.0 µM (≈ 353 µg/mL)

Compound: CSCC[C@H](NC(=O)[C@H](CN)NC(=O)[C@H](CCCc1ccccc1)NC(=O)[C@@H]1CCCN1C(=O)[C@H](CCCNC(=N)N)NC(C)=O)C(=O)N[C@@H](CCCNC(=N)N)C(=O)N[C@@H](CCCNC(=N)N)C(=O)N[C@@H](Cc1c[nH]c2ccccc12)C(=O)N[C@@H](CC(C)C)C(=O)N[C@@H](C)C(=O)N[C@@H](CCCCN)C(=O)N[C@@H](CCCNC(=N)N)C(=O)NCC(=O)N[C@@H](CC(C)C)C(N)=O [compound 227] (Ac-RP[hhPhe][Dap]MRRWLAKRGL-NH2)
- MIC E. coli BW25113 (BW25113): 50.0 µM (≈ 92.1 µg/mL)
